Data from article PMC4435632, “Phase 1 study of ixazomib, an investigational proteasome inhibitor, in advanced non-hematologic malignancies” (Investigational New Drugs, 2015).

System: patients with advanced non-hematologic malignancies
Assay: Safety: adverse events graded by NCI-CTCAE v3.0, phase 1 study of IV ixazomib
Assay type: in vivo
Description: Patients received ixazomib as an IV bolus on days 1, 4, 8, and 11 of a 21-day cycle, for up to 12 cycles, or until disease progression or unacceptable toxicity. Patients who were thought to potentially benefit from prolonged therapy could receive continued treatment beyond 12 cycles according to the treating physician’s consideration. Patients could receive prophylactic antiviral therapy; prophylactic antidiarrheals and antiemetics were not employed initially but could be considered upon development of diarrhea or nausea/vomiting.
AEs were monitored throughout the study and were graded according to National Cancer Institute Common Terminology Criteria for Adverse Events (NCI-CTCAE) v3.0. Response assessments were undertaken by investigators using a consistent imaging modality in accordance with RECIST 1.0 [23] on days 18–21 of cycle 2 and subsequent cycles. For patients with prostate cancer, response and progressive disease were based on RECIST for measurable neoplastic disease or on measurement of serum PSA per modified PCWG2 criteria in the absence of measurable sites.
The safety population included all patients who received ≥1 dose of ixazomib, and the DLT-evaluable population, which was used for determination of the MTD, comprised patients who received all cycle 1 doses of ixazomib or experienced a DLT in cycle 1. […] The response-evaluable population included all patients who received ≥1 dose of ixazomib, had measurable disease at baseline, and had ≥1 post-baseline disease assessment. Approximately 16 response-evaluable patients were planned to be evaluated in each MTD expansion cohort.
All efficacy and safety data were summarized using descriptive statistics. Pharmacokinetic and pharmacodynamic parameters were calculated using noncompartmental methods (WinNonlin software v5.3).

Compound: CC(C)C[C@H](NC(=O)CNC(=O)c1cc(Cl)ccc1Cl)B(O)O [ixazomib]
- Any on-study deaths (Dose-escalation cohort (n=23)): 3 (13) n (%)
- Any on-study deaths (MTD expansion cohort H&N (n=22)): 2 (9) n (%)
- Any on-study deaths (MTD expansion cohort NSCLC (n=20)): 0 n (%)
- Any on-study deaths (MTD expansion cohort PC (n=11)): 0 n (%)
- Any on-study deaths (MTD expansion cohort STS (n=20)): 1 (5) n (%)
- Any on-study deaths (MTD expansion cohort TPEC (n=20)): 1 (5) n (%)
- Any on-study deaths (Total (N=116)): 7 (6) n (%)
- Drug-related AE: alopecia (human, in vivo): < 1%
- Drug-related AE: circumoral edema (human, in vivo): < 1%
- Drug-related AE: dermatitis acneiform (human, in vivo): 2%
- Drug-related AE: dry skin (human, in vivo): 2%
- Drug-related AE: erythema nodosum (human, in vivo): < 1%
- Drug-related AE: exfoliative rash (human, in vivo): < 1%
- Drug-related AE: night sweats (human, in vivo): < 1%
- Drug-related AE: petechiae (human, in vivo): < 1%
- Drug-related AE: pruritus (human, in vivo): 4%
- Drug-related AE: rash (human, in vivo): 6%
- Drug-related AE: rash erythematous (human, in vivo): 9%
- Drug-related AE: rash macular (human, in vivo): 13%
- Drug-related AE: rash maculo-papular (human, in vivo): 17%
- Drug-related AE: rash papular (human, in vivo): 10%
- Drug-related AE: rash pruritic (human, in vivo): 13%
- Drug-related AE: skin exfoliation (human, in vivo): < 1%
- Drug-related AE: skin hyperpigmentation (human, in vivo): < 1%
- Drug-related AE: swelling face (human, in vivo): < 1%
- Drug-related AE: urticaria (human, in vivo): < 1%
- Drug-related PN NEC (human, in vivo): 15%
- Drug-related PN NEC, grade 1 (human, in vivo): 6 n
- Drug-related PN NEC, grade 2 (human, in vivo): 8 n
- Drug-related grade ≥3 AE: erythema nodosum (human, in vivo): < 1%
- Drug-related grade ≥3 AE: rash (human, in vivo): < 1%
- Drug-related grade ≥3 AE: rash erythematous (human, in vivo): 2%
- Drug-related grade ≥3 AE: rash macular (human, in vivo): 3%
- Drug-related grade ≥3 AE: rash maculo-papular (human, in vivo): 7%
- Drug-related grade ≥3 AE: rash papular (human, in vivo): < 1%
- Drug-related grade ≥3 AE: rash pruritic (human, in vivo): 3%
- Drug-related grade ≥3 fatigue (human, in vivo): 9%
- Drug-related grade ≥3 thrombocytopenia (human, in vivo): 23%
- Drug-related serious AE: dehydration (human, in vivo): 3%
- Drug-related serious AE: fatigue (human, in vivo): 3%
- Drug-related serious AE: nausea (human, in vivo): 3%
- Drug-related serious AE: thrombocytopenia (human, in vivo): 6%
- Drug-related serious AE: vomiting (human, in vivo): 3%
- Drug-related serious AEs (human, in vivo): 28%
- Drug-related thrombocytopenia (human, in vivo): 45%
- Duration of rash, median (human, in vivo): 15 days
- Duration of rash, range (human, in vivo): 4 to 90 days
- Grade 3 PN NEC (human, in vivo): 3%
- Patients who discontinued ixazomib due to treatment-emergent AEs (human, in vivo): 15%
- Patients who required platelet transfusions (human, in vivo): 4%
- Patients with ≥1 drug-related AE (human, in vivo): 90%
- Patients with ≥1 drug-related grade ≥3 AE (human, in vivo): 57%
- Patients with ≥1 treatment-emergent AE (human, in vivo): 99%
- Patients with ≥1 treatment-emergent grade ≥3 AE (human, in vivo): 72%
- Drug-related grade ≥3 skin and subcutaneous (SC) tissue disorders (human, in vivo, sc): 16%
- Treatment-related skin and subcutaneous (SC) tissue disorders (human, in vivo, sc): 53%
- On-study deaths (none considered treatment-related): seven
